Laboratory results as given in patent US9969692B2, “Process for preparing quinoline derivatives” (Exelixis, Inc., priority 2011, dated 2018).

Test: Gravimetric vapor sorption (GVS) moisture adsorption desorption isotherm
Type: physicochemical
Settings: 25° C. and 90% humidity
Experimental: A gravimetric vapor sorption (GVS) study was run using a standard procedure. Samples were run on a dynamic vapor sorption analyzer (Surface Measurement Systems) running DVSCFR software. Sample sizes were typically 10 mg. A moisture adsorption desorption isotherm was performed as outlined below. The standard isotherm experiment, performed at 25° C., is a two-cycle run, starting at 40% RH (relative humidity), increasing humidity to 90% RH, decreasing humidity to 0% RH, increasing humidity again to 90% RH, and finally decreasing humidity to 0% RH in 10% RH intervals.

- weight gain (GVS): 2.5%
Compound: COc1cc2c(Oc3ccc(NC(=O)C4(C(=O)Nc5ccc(F)cc5)CC4)cc3F)ccnc2cc1OCCCN1CCOCC1.O [crystalline Compound 1, N-[3-fluoro-4-({6-(methyloxy)-7-[(3-morpholin-4-ylpropyl)oxy]quinolin-4-yl}oxy)phenyl]-N′-(4-fluorophenyl)cyclopropane-1,1-dicarboxamide crystalline hydrate]
